For 2 compounds, EC50 results are on record in patent US20070213301A1 (ACHILLION PHARMACEUTICALS, INC., priority 2006, published 2007).

By EC50 is commonly meant the concentration giving half of the maximal effect.

This assay concerns HCV replicon. As to the kind of experiment: HCV replicon replication assay (NPTII ELISA). The class given is cell-based, Hepatitis C virus (Huh-7 cells). Particulars: Hepatitis C virus, Huh-7, 72 h, inhibition of HCV replicon replication in Huh-7 HCV replicon-containing cells, three days incubation, NPT level by ELISA; read-out: EC50. In a few lines:
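Huh-7 cells carrying a Bartenschlager NPTII (neo) HCV replicon, treated 3 days at 37 °C with compound, generally 6 concentrations from 10 to 0.03 micromolar, in equal DMSO across wells. NPTII level, proportional to replication, read by capture ELISA on methanol:acetone-fixed cells; interferon alpha positive control; toxicity scored visually or by MTS.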
(In general: Replicon systems follow genome replication, usually without infectious particles.)

`NCCN(c1ccc(OCCCCc2cccs2)c(C(F)(F)F)c1)c1nc(-c2cccnc2)c(F)s1` [Compound 193, N1-(5-fluoro-4-(pyridin-3-yl)thiazol-2-yl)-N1-(4-(4-(thiophen-2-yl)butoxy)-3-(trifluoromethyl)phenyl)ethane-1,2-diamine]: the 50% effective concentration (EC50) was 1000 to 10000 nM. Consider `CCCCCCCCOc1ccc(N(C(C)=O)c2ncc(-c3cccnc3)s2)cc1C(F)(F)F` [Compound 194, N-(4-(octyloxy)-3-(trifluoromethyl)phenyl)-N-(5-(pyridin-3-yl)thiazol-2-yl)acetamide], for which the EC50 was less than 1000 nM.
